# Results from patent US20090156518A1, “STABLE PHARMACEUTICAL COMPOSITION COMPRISING BETA-LACTAM ANTIBIOTIC AND BUFFER” (priority 2006, published 2009).
# Test: amounts of β-lactam antibiotic, β-lactamase inhibitor (C18 reverse-phase LC, UV-VIS) and aminoglycoside (HPLC-ELSD) in solution over time
# Assay type: physicochemical
# Experimental: The amounts of β-lactam antibiotics and β-lactamase inhibitor were determined using C18 reverse-phase LC and UV-VIS detector (Tianjin Hemay BioTech Co., Ltd., analysis method No. HM-K-03). The content of aminoglycoside antibiotics was measured using reverse-phase HPLC and evaporation-light-scattering detector (ELSD detector) (Tianjin Hemay BioTech Co., Ltd., analysis method No. HM-K-08). The amount of antibiotic component at each time point was expressed as a percentage with respect to the amount at the initial time (herein defined as 100%). The relative amount of each antibiotic component in the composition at each time point was expressed as peak area ratio with respect to the corresponding peak area of an external standard.
structure (smiles),measurement,setting,value
CCN1CCN(C(=O)N[C@@H](C(=O)N[C@@H]2C(=O)N3C(C(=O)O)=C(CSc4nnnn4C)CS[C@H]23)c2ccc(O)cc2)C(=O)C1=O [Cefoperazone sodium],amount of component as percentage with respect to the amount at the initial time,"Example 4: cefoperazone sodium 4 g, sulbactam sodium 0.5 g, gentamicin 80 mg, citrate pH 6.75, 200 mL water, room temperature, Time 0 h",101.4%
same,amount of component as percentage with respect to the amount at the initial time,"Example 4: cefoperazone sodium 4 g, sulbactam sodium 0.5 g, gentamicin 80 mg, citrate pH 6.75, 200 mL water, room temperature, Time 1 h",98.66%
same,amount of component as percentage with respect to the amount at the initial time,"Example 4: cefoperazone sodium 4 g, sulbactam sodium 0.5 g, gentamicin 80 mg, citrate pH 6.75, 200 mL water, room temperature, Time 2 h",98.79%
same,amount of component as percentage with respect to the amount at the initial time,"Example 4: cefoperazone sodium 4 g, sulbactam sodium 0.5 g, gentamicin 80 mg, citrate pH 6.75, 200 mL water, room temperature, Time 4 h",101.5%
same,amount of component as percentage with respect to the amount at the initial time,"Example 4: cefoperazone sodium 4 g, sulbactam sodium 0.5 g, gentamicin 80 mg, citrate pH 6.75, 200 mL water, room temperature, Time 6 h",107.4%
same,amount of component as percentage with respect to the amount at the initial time,"Example 5: freeze-dried cefoperazone sodium 4 g, sulbactam sodium 0.5 g, citrate pH 6.75, + amikacin sulfate 500 mg, 7 days 0° C., dissolved in 100 mL water, Time 0 h",101.4%
same,amount of component as percentage with respect to the amount at the initial time,"Example 5: freeze-dried cefoperazone sodium 4 g, sulbactam sodium 0.5 g, citrate pH 6.75, + amikacin sulfate 500 mg, 7 days 0° C., dissolved in 100 mL water, Time 1 h",98.66%
same,amount of component as percentage with respect to the amount at the initial time,"Example 5: freeze-dried cefoperazone sodium 4 g, sulbactam sodium 0.5 g, citrate pH 6.75, + amikacin sulfate 500 mg, 7 days 0° C., dissolved in 100 mL water, Time 2 h",98.79%
same,amount of component as percentage with respect to the amount at the initial time,"Example 5: freeze-dried cefoperazone sodium 4 g, sulbactam sodium 0.5 g, citrate pH 6.75, + amikacin sulfate 500 mg, 7 days 0° C., dissolved in 100 mL water, Time 4 h",101.5%
same,amount of component as percentage with respect to the amount at the initial time,"Example 5: freeze-dried cefoperazone sodium 4 g, sulbactam sodium 0.5 g, citrate pH 6.75, + amikacin sulfate 500 mg, 7 days 0° C., dissolved in 100 mL water, Time 6 h",107.4%
same,amount of component as percentage with respect to the amount at the initial time,"Example 6: freeze-dried cefoperazone sodium 4 g, sulbactam sodium 1 g, citrate pH 6.75, + etimicin sulfate 200 mg, 7 days 0° C., dissolved in 100 mL water, Time 0 h",110.4%
same,amount of component as percentage with respect to the amount at the initial time,"Example 6: freeze-dried cefoperazone sodium 4 g, sulbactam sodium 1 g, citrate pH 6.75, + etimicin sulfate 200 mg, 7 days 0° C., dissolved in 100 mL water, Time 1 h",99.48%
same,amount of component as percentage with respect to the amount at the initial time,"Example 6: freeze-dried cefoperazone sodium 4 g, sulbactam sodium 1 g, citrate pH 6.75, + etimicin sulfate 200 mg, 7 days 0° C., dissolved in 100 mL water, Time 2 h",101.3%
same,amount of component as percentage with respect to the amount at the initial time,"Example 6: freeze-dried cefoperazone sodium 4 g, sulbactam sodium 1 g, citrate pH 6.75, + etimicin sulfate 200 mg, 7 days 0° C., dissolved in 100 mL water, Time 4 h",98.66%
same,amount of component as percentage with respect to the amount at the initial time,"Example 6: freeze-dried cefoperazone sodium 4 g, sulbactam sodium 1 g, citrate pH 6.75, + etimicin sulfate 200 mg, 7 days 0° C., dissolved in 100 mL water, Time 6 h",98.02%
same,amount of component as percentage with respect to the amount at the initial time,"Example 6: freeze-dried cefoperazone sodium 4 g, sulbactam sodium 1 g, citrate pH 6.75, + etimicin sulfate 200 mg, 7 days 0° C., dissolved in 100 mL water, Time 8 h",99.30%
same,amount of component as percentage with respect to the amount at the initial time,"Example 14: freeze-dried cefoperazone sodium 4 g, sulbactam sodium 2 g, citrate pH 6.75, 7 days 0° C., in 100 mL water, 10 mL + gentamicin sulfate 16 mg, room temperature, Time 0 h",98.42%
same,amount of component as percentage with respect to the amount at the initial time,"Example 14: freeze-dried cefoperazone sodium 4 g, sulbactam sodium 2 g, citrate pH 6.75, 7 days 0° C., in 100 mL water, 10 mL + gentamicin sulfate 16 mg, room temperature, Time 1 h",97.39%
same,amount of component as percentage with respect to the amount at the initial time,"Example 14: freeze-dried cefoperazone sodium 4 g, sulbactam sodium 2 g, citrate pH 6.75, 7 days 0° C., in 100 mL water, 10 mL + gentamicin sulfate 16 mg, room temperature, Time 2 h",97.46%
same,amount of component as percentage with respect to the amount at the initial time,"Example 14: freeze-dried cefoperazone sodium 4 g, sulbactam sodium 2 g, citrate pH 6.75, 7 days 0° C., in 100 mL water, 10 mL + gentamicin sulfate 16 mg, room temperature, Time 4 h",94.70%
same,amount of component as percentage with respect to the amount at the initial time,"Example 14: freeze-dried cefoperazone sodium 4 g, sulbactam sodium 2 g, citrate pH 6.75, 7 days 0° C., in 100 mL water, 10 mL + gentamicin sulfate 16 mg, room temperature, Time 6 h",93.02%
same,amount of component as percentage with respect to the amount at the initial time,"Example 15: freeze-dried cefoperazone sodium 4 g, sulbactam sodium 4 g, citrate pH 6.75, 7 days 0° C., in 100 mL water, 10 mL + gentamicin sulfate 16 mg, room temperature, Time 0 h",101.7%
same,amount of component as percentage with respect to the amount at the initial time,"Example 15: freeze-dried cefoperazone sodium 4 g, sulbactam sodium 4 g, citrate pH 6.75, 7 days 0° C., in 100 mL water, 10 mL + gentamicin sulfate 16 mg, room temperature, Time 1 h",96.06%
same,amount of component as percentage with respect to the amount at the initial time,"Example 15: freeze-dried cefoperazone sodium 4 g, sulbactam sodium 4 g, citrate pH 6.75, 7 days 0° C., in 100 mL water, 10 mL + gentamicin sulfate 16 mg, room temperature, Time 2 h",95.72%
same,amount of component as percentage with respect to the amount at the initial time,"Example 15: freeze-dried cefoperazone sodium 4 g, sulbactam sodium 4 g, citrate pH 6.75, 7 days 0° C., in 100 mL water, 10 mL + gentamicin sulfate 16 mg, room temperature, Time 4 h",97.32%
same,amount of component as percentage with respect to the amount at the initial time,"Example 15: freeze-dried cefoperazone sodium 4 g, sulbactam sodium 4 g, citrate pH 6.75, 7 days 0° C., in 100 mL water, 10 mL + gentamicin sulfate 16 mg, room temperature, Time 6 h",69.95%
same,amount of component as percentage with respect to the amount at the initial time,"Example 16: 10 mL of the final solution (cefoperazone sodium, tazobactam sodium, etimicin sulfate, citrate) + gentamicin sulfate 16 mg, Time 0 h",92.44%
same,amount of component as percentage with respect to the amount at the initial time,"Example 16: 10 mL of the final solution (cefoperazone sodium, tazobactam sodium, etimicin sulfate, citrate) + gentamicin sulfate 16 mg, Time 1 h",104.6%
same,amount of component as percentage with respect to the amount at the initial time,"Example 16: 10 mL of the final solution (cefoperazone sodium, tazobactam sodium, etimicin sulfate, citrate) + gentamicin sulfate 16 mg, Time 2 h",102.4%
same,amount of component as percentage with respect to the amount at the initial time,"Example 16: 10 mL of the final solution (cefoperazone sodium, tazobactam sodium, etimicin sulfate, citrate) + gentamicin sulfate 16 mg, Time 4 h",97.95%
same,amount of component as percentage with respect to the amount at the initial time,"Example 16: 10 mL of the final solution (cefoperazone sodium, tazobactam sodium, etimicin sulfate, citrate) + gentamicin sulfate 16 mg, Time 6 h",98.90%
same,amount of component as percentage with respect to the amount at the initial time,"Example 16: 10 mL of the final solution (cefoperazone sodium, tazobactam sodium, etimicin sulfate, citrate) + gentamicin sulfate 16 mg, Time 8 h",102.9%
same,amount of component as percentage with respect to the amount at the initial time,"Example 16: freeze-dried cefoperazone sodium 4 g, tazobactam sodium 1 g, citrate pH 6.75, 7 days 0° C., in 100 mL water, 10 mL + etimicin sulfate 20 mg, room temperature, Time 0 h",102.9%
same,amount of component as percentage with respect to the amount at the initial time,"Example 16: freeze-dried cefoperazone sodium 4 g, tazobactam sodium 1 g, citrate pH 6.75, 7 days 0° C., in 100 mL water, 10 mL + etimicin sulfate 20 mg, room temperature, Time 1 h",108.6%
same,amount of component as percentage with respect to the amount at the initial time,"Example 16: freeze-dried cefoperazone sodium 4 g, tazobactam sodium 1 g, citrate pH 6.75, 7 days 0° C., in 100 mL water, 10 mL + etimicin sulfate 20 mg, room temperature, Time 2 h",104.6%
same,amount of component as percentage with respect to the amount at the initial time,"Example 16: freeze-dried cefoperazone sodium 4 g, tazobactam sodium 1 g, citrate pH 6.75, 7 days 0° C., in 100 mL water, 10 mL + etimicin sulfate 20 mg, room temperature, Time 4 h",99.50%
same,amount of component as percentage with respect to the amount at the initial time,"Example 16: freeze-dried cefoperazone sodium 4 g, tazobactam sodium 1 g, citrate pH 6.75, 7 days 0° C., in 100 mL water, 10 mL + etimicin sulfate 20 mg, room temperature, Time 6 h",98.91%
same,amount of component as percentage with respect to the amount at the initial time,"Example 16: freeze-dried cefoperazone sodium 4 g, tazobactam sodium 1 g, citrate pH 6.75, 7 days 0° C., in 100 mL water, 10 mL + etimicin sulfate 20 mg, room temperature, Time 8 h",103.4%
same,amount of component as percentage with respect to the amount at the initial time,"Example 17: freeze-dried cefoperazone sodium 4 g, sulbactam sodium 1 g, citrate pH 6.75, 7 days 0° C., in 100 mL water, 10 mL + amikacin sulfate 40 mg, room temperature, Time 0 h",92.30%
same,amount of component as percentage with respect to the amount at the initial time,"Example 17: freeze-dried cefoperazone sodium 4 g, sulbactam sodium 1 g, citrate pH 6.75, 7 days 0° C., in 100 mL water, 10 mL + amikacin sulfate 40 mg, room temperature, Time 1 h",94.80%
same,amount of component as percentage with respect to the amount at the initial time,"Example 17: freeze-dried cefoperazone sodium 4 g, sulbactam sodium 1 g, citrate pH 6.75, 7 days 0° C., in 100 mL water, 10 mL + amikacin sulfate 40 mg, room temperature, Time 2 h",94.06%
same,amount of component as percentage with respect to the amount at the initial time,"Example 17: freeze-dried cefoperazone sodium 4 g, sulbactam sodium 1 g, citrate pH 6.75, 7 days 0° C., in 100 mL water, 10 mL + amikacin sulfate 40 mg, room temperature, Time 4 h",94.12%
same,amount of component as percentage with respect to the amount at the initial time,"Example 17: freeze-dried cefoperazone sodium 4 g, sulbactam sodium 1 g, citrate pH 6.75, 7 days 0° C., in 100 mL water, 10 mL + amikacin sulfate 40 mg, room temperature, Time 6 h",93.15%
same,amount of component as percentage with respect to the amount at the initial time,"Example 17: freeze-dried cefoperazone sodium 4 g, sulbactam sodium 1 g, citrate pH 6.75, 7 days 0° C., in 100 mL water, 10 mL + amikacin sulfate 40 mg, room temperature, Time 8 h",94.50%
